Experimental data: US10603357B2, “Therapeutic TREM-1 peptides” (Universite de Lorraine, priority 2004, dated 2020)

Assays:
BALB/c mice = experiment: CLP polymicrobial sepsis model in mice (Example 3); assay type: in vivo, mouse; conditions: for Serum IL-1β / Serum TNF-α / Serum sTREM-1: 24 hours after CLP
Experimental: Male Balb/C mice (20 to 23 g) were randomly grouped and treated with normal saline (n=14) or the control peptide (n=14, 100 μg) or with P5 (100 μg) in a single infection at HO (n=18), H+4 (n=18) or H+24 (n=18). The last group of mice (n=18) was treated with repeated injections of P5 (100 μg) at H+4, H+8 and H+24.
Mice (n=15 per group) were treated with a single injection of normal saline or 10 μg, 20 μg, 50 μg, 100 μg or 200 μg of P5 at HO after the CLP and monitored for survival.
Mice (5 per group) were killed under anaesthesia at 24 hours after CLP. Bacterial counts in peritoneal lavage fluid and blood were determined and results are expressed as CFU per mL of blood and CFU per mouse for the peritoneal lavage.
Male Balb/C mice (7 to 9 weeks, 20 to 23 g) were anaesthetized by i.p. administration of ketamine and xylazine in 0.2 mL sterile pyrogen-free saline. The caecum was exposed through a 1.0 cm abdominal midline incision and subjected to a ligation of the distal half followed by two punctures with a G21 needle. A small amount of stool was expelled from the punctures to ensure patency. The caecum was replaced into the peritoneal cavity and the abdominal incision closed in two layers. After surgery all mice were injected s.c. with 0.5 ml of physiologic saline solution for fluid resuscitation and s.c. every 12 h with 1.25 mg (i.e. 50 μg/g) of imipenem. The animals were randomly grouped and treated with normal saline (n=14), the control peptide (n=14, 100 μg) or P5 (100 μg) in a single injection at HO (n=18), H+4 (n=18) or H+24 (n=18). The last group of mice (n=18) was treated with repeated injections of P5 (100 μg) at H+4, H+8 and H+24. All treatments were diluted into 500 μl of normal saline and administered i.p. The Inventors next sought to determine the effect of various doses of P5. For this purpose, mice (n=15 per group) were treated with a single injection of normal saline or 10 μg, 20 μg, 50 μg 100 μg or 200 μg of P5 at HO after the CLP and monitored for survival. Five additional animals per group were killed under anaesthesia 24 hours after CLP for the determination of bacterial count and cytokines levels. Peritoneal lavage fluid was obtained using 2 mL RPMI 1640 (Life Technologies) and blood was collected by cardiac puncture. Concentrations of TNF-α and IL-1β in the serum were determined by ELISA (BD Biosciences). For the assessment of bacterial counts, blood and peritoneal lavage fluid were plated in serial log dilutions on tryptic soy supplemented with 5% sheep blood agar plates. After plating, tryptic soy agar plates were incubated at 37° C. aerobically for 24 hours, and anaerobically for 48 hours. Results are expressed as CFU per mL of blood and CFU per mouse for the peritoneal lavage.

C57BL/6 mice = experiment: cecal ligation and puncture (CLP), survival of mice (Example 1); assay type: in vivo, mouse; conditions: 200 μl of 600 μM i.p. 5 and 24 hours after CLP; 5 days after CLP; 15 per group
Experimental: CLP was induced in C57BL/6 mice (15 per group) as described in Materials and Methods. P1 peptide (empty dots) or P3 peptide (filled squares) (200 μl of a 600 μM solution per mouse) were injected intraperitoneally 5 and 24 hours after CLP induction. Viability of mice was monitored twice a day for 10 days. Statistical analysis was performed with the Logrank test.
In order to investigate whether TREM-1 peptide treatment could be delayed until after the administration of LPS, the Inventors injected the peptides at 4 hours after LPS injection. […] 80% of the mice injected with P1 4 hours after LPS survived endotoxaemia compared to 60% of mice treated 1 h before LPS and 10% of mice treated with vehicle alone (p<0.001 and p<0.01 respectively). Thus, P1 is effective even when injected after the outbreak of endotoxaemia. […] P1 administration conferred maximal protection (80%) when administered at 600 μM (p<0.01) and the level of protection dropped to 50% at 300 μM (p<0.05) and further down to 30% at 150 μM as compared to 20% of control mice, indicating a dose dependent effect of P1 (FIG. 4). The Inventors then investigated whether P1 protects against septic shock in the “CLP” model (Cecal Ligation and Puncture is a widely used experimental model of sepsis). […]

LQVTDSGLYRCVIYHPP [P5]
effect on survival of repeated injections (BALB/c mice; 100 μg at H+4, H+8 and H+24 after CLP): more favourable effect on survival | Serum IL-1β (BALB/c mice; 10 μg at H0): 356 ± 62 pg/mL | Serum TNF-α (BALB/c mice; 10 μg at H0): 110 ± 11 pg/mL | Serum sTREM-1 (BALB/c mice; 10 μg at H0): 43 ± 8 ng/mL | Serum IL-1β (BALB/c mice; 20 μg at H0): 324 ± 58 pg/mL | Serum TNF-α (BALB/c mice; 20 μg at H0): 89 ± 10 pg/mL | Serum sTREM-1 (BALB/c mice; 20 μg at H0): 58 ± 8 ng/mL | Serum IL-1β (BALB/c mice; 50 μg at H0): 57 ± 11 pg/mL | Serum TNF-α (BALB/c mice; 50 μg at H0): 24 ± 6 pg/mL | Serum sTREM-1 (BALB/c mice; 50 μg at H0): 93 ± 10 ng/mL | Serum IL-1β (BALB/c mice; 100 μg at H0): 31 ± 3 pg/mL | Serum TNF-α (BALB/c mice; 100 μg at H0): 20 ± 3 pg/mL | Serum sTREM-1 (BALB/c mice; 100 μg at H0): 118 ± 12 ng/mL | Serum IL-1β (BALB/c mice; 200 μg at H0): 37 ± 8 pg/mL | Serum TNF-α (BALB/c mice; 200 μg at H0): 21 ± 7 pg/mL | Serum sTREM-1 (BALB/c mice; 200 μg at H0): 158 ± 13 ng/mL

LVVTQRPFTRPSEVHMGKFTLKH (listed as Mus musculus) [P1]
mice surviving after CLP (C57BL/6 mice): 40%
